Test results as given in patent US6458978B1, “Fluorous phosphines and process for their preparation” (Atofina Vlissingen B.V., priority 1998, dated 2002).

Experiments:
[1] = Solubility of dppe and dppe derivatives G{m,x} in perfluorinated and non-fluorinated solvents; assay type: physicochemical; details: for solubility at room temperature, FC-72: FC-72: mixture of perfluorinated hexanes
[2] = Determination of partition coefficients of phosphines in fluorous biphasic systems (ICP-AAS on phosphorus); assay type: physicochemical; details: 0° C., 1:1 mixture (v/v)
Excerpt: For applications in fluorous bi-phasic catalysis and for catalyst recycling by fluorous phase extraction techniques an important feature of the fluorous aryl phosphines and the derived catalytic complexes is the partition coefficient P(P=Cfluorous phase/Corganic phase. C=concentration) in fluorous bi-phasic systems.
11. Determination of Partition Coefficients
The partition coefficients were determinded by dissolving a known amount of phosphine (typically between 11 and 60 μmol) in a fluorous biphasic system either consisting of c-C6F11CF3 (2.000±0.002 mL) and n-pentane, n-octane or toluene (2.006±0.002 mL). The resulting mixture was stirred at 25° C. until all solid had dissolved and equilibrated in a water ice bath (1 h). An aliquot (0.500±0.002 mL) was removed from each layer by syringe. Analysis by ICP-AAS on phosphorus gave the amount of phosphine present, with an accuracy of ±0.3 ppm. A conservative estimate of the experimental error in the partition coefficient is ±1 in the last digit.

solubility at room temperature, THF [1] | solubility at room temperature, toluene [1] | solubility at room temperature, FC-72 [1] | Fluorous partition coefficient P = cfluorous phase/corganic phase, n-octane/c-C6F11CF3 [2] | Fluorous partition coefficient P = cfluorous phase/corganic phase, n-pentane/c-C6F11CF3 [2] | Fluorous partition coefficient P = cfluorous phase/corganic phase, toluene/c-C6F11CF3 [2] | Compound
− (−: <0.01 g/ml) | − (−: <0.01 g/ml) | + (+: >0.1 g/ml) | – | – | – | FC(F)(F)C(F)(F)C(F)(F)C(F)(F)C(F)(F)C(F)(F)CC[Si](CCC(F)(F)C(F)(F)C(F)(F)C(F)(F)C(F)(F)C(F)(F)F)(CCC(F)(F)C(F)(F)C(F)(F)C(F)(F)C(F)(F)C(F)(F)F)c1ccc(P(CCP(c2ccc([Si](CCC(F)(F)C(F)(F)C(F)(F)C(F)(F)C(F)(F)C(F)(F)F)(CCC(F)(F)C(F)(F)C(F)(F)C(F)(F)C(F)(F)C(F)(F)F)CCC(F)(F)C(F)(F)C(F)(F)C(F)(F)C(F)(F)C(F)(F)F)cc2)c2ccc([Si](CCC(F)(F)C(F)(F)C(F)(F)C(F)(F)C(F)(F)C(F)(F)F)(CCC(F)(F)C(F)(F)C(F)(F)C(F)(F)C(F)(F)C(F)(F)F)CCC(F)(F)C(F)(F)C(F)(F)C(F)(F)C(F)(F)C(F)(F)F)cc2)c2ccc([Si](CCC(F)(F)C(F)(F)C(F)(F)C(F)(F)C(F)(F)C(F)(F)F)(CCC(F)(F)C(F)(F)C(F)(F)C(F)(F)C(F)(F)C(F)(F)F)CCC(F)(F)C(F)(F)C(F)(F)C(F)(F)C(F)(F)C(F)(F)F)cc2)cc1 [G{3,6}]
+ (+: >0.1 g/ml) | – | − (−: <0.01 g/ml) | – | – | – | C[Si](C)(C)c1ccc(P(CCP(c2ccc([Si](C)(C)C)cc2)c2ccc([Si](C)(C)C)cc2)c2ccc([Si](C)(C)C)cc2)cc1 [G{0}, (Me3SiC6H4-4)2PCH2CH2P(C6H4SiMe3-4)2, reference compound]
– | – | – | – | – | 0.007 | C[Si](C)(C)c1ccc(P(c2ccc([Si](C)(C)C)cc2)c2ccc([Si](C)(C)C)cc2)cc1 [D{0}, P(C6H4SiMe3-4)3, reference compound]

More lines, now with the values behind:

Compound | solubility at room temperature, THF [1] | solubility at room temperature, toluene [1] | solubility at room temperature, FC-72 [1] | Fluorous partition coefficient P = cfluorous phase/corganic phase, n-octane/c-C6F11CF3 [2] | Fluorous partition coefficient P = cfluorous phase/corganic phase, n-pentane/c-C6F11CF3 [2] | Fluorous partition coefficient P = cfluorous phase/corganic phase, toluene/c-C6F11CF3 [2]
C[Si](C)(CCC(F)(F)C(F)(F)C(F)(F)C(F)(F)C(F)(F)C(F)(F)F)c1ccc(P(CCP(c2ccc([Si](C)(C)CCC(F)(F)C(F)(F)C(F)(F)C(F)(F)C(F)(F)C(F)(F)F)cc2)c2ccc([Si](C)(C)CCC(F)(F)C(F)(F)C(F)(F)C(F)(F)C(F)(F)C(F)(F)F)cc2)c2ccc([Si](C)(C)CCC(F)(F)C(F)(F)C(F)(F)C(F)(F)C(F)(F)C(F)(F)F)cc2)cc1 [G{1,6}] | + (+: >0.1 g/ml) | + (+: >0.1 g/ml) | − (−: <0.01 g/ml) | – | – | –
C[Si](CCC(F)(F)C(F)(F)C(F)(F)C(F)(F)C(F)(F)C(F)(F)F)(CCC(F)(F)C(F)(F)C(F)(F)C(F)(F)C(F)(F)C(F)(F)F)c1ccc(P(CCP(c2ccc([Si](C)(CCC(F)(F)C(F)(F)C(F)(F)C(F)(F)C(F)(F)C(F)(F)F)CCC(F)(F)C(F)(F)C(F)(F)C(F)(F)C(F)(F)C(F)(F)F)cc2)c2ccc([Si](C)(CCC(F)(F)C(F)(F)C(F)(F)C(F)(F)C(F)(F)C(F)(F)F)CCC(F)(F)C(F)(F)C(F)(F)C(F)(F)C(F)(F)C(F)(F)F)cc2)c2ccc([Si](C)(CCC(F)(F)C(F)(F)C(F)(F)C(F)(F)C(F)(F)C(F)(F)F)CCC(F)(F)C(F)(F)C(F)(F)C(F)(F)C(F)(F)C(F)(F)F)cc2)cc1 [G{2,6}] | + (+: >0.1 g/ml) | – | + (+: >0.1 g/ml) | – | – | –
FC(F)(F)C(F)(F)C(F)(F)C(F)(F)C(F)(F)C(F)(F)CC[Si](CCC(F)(F)C(F)(F)C(F)(F)C(F)(F)C(F)(F)C(F)(F)F)(CCC(F)(F)C(F)(F)C(F)(F)C(F)(F)C(F)(F)C(F)(F)F)c1ccc(P(c2ccc([Si](CCC(F)(F)C(F)(F)C(F)(F)C(F)(F)C(F)(F)C(F)(F)F)(CCC(F)(F)C(F)(F)C(F)(F)C(F)(F)C(F)(F)C(F)(F)F)CCC(F)(F)C(F)(F)C(F)(F)C(F)(F)C(F)(F)C(F)(F)F)cc2)c2ccc([Si](CCC(F)(F)C(F)(F)C(F)(F)C(F)(F)C(F)(F)C(F)(F)F)(CCC(F)(F)C(F)(F)C(F)(F)C(F)(F)C(F)(F)C(F)(F)F)CCC(F)(F)C(F)(F)C(F)(F)C(F)(F)C(F)(F)C(F)(F)F)cc2)cc1 [D{3,6}] | – | – | – | 3.7 | 5.3 | 2.1
C[Si](C)(CCC(F)(F)C(F)(F)C(F)(F)C(F)(F)C(F)(F)C(F)(F)F)c1ccc(P(c2ccc([Si](C)(C)CCC(F)(F)C(F)(F)C(F)(F)C(F)(F)C(F)(F)C(F)(F)F)cc2)c2ccc([Si](C)(C)CCC(F)(F)C(F)(F)C(F)(F)C(F)(F)C(F)(F)C(F)(F)F)cc2)cc1 [D{1,6}] | – | – | – | 0.42 | 0.53 | 0.13
C[Si](C)(CCC(F)(F)C(F)(F)C(F)(F)C(F)(F)C(F)(F)C(F)(F)C(F)(F)C(F)(F)F)c1ccc(P(CCP(c2ccc([Si](C)(C)CCC(F)(F)C(F)(F)C(F)(F)C(F)(F)C(F)(F)C(F)(F)C(F)(F)C(F)(F)F)cc2)c2ccc([Si](C)(C)CCC(F)(F)C(F)(F)C(F)(F)C(F)(F)C(F)(F)C(F)(F)C(F)(F)C(F)(F)F)cc2)c2ccc([Si](C)(C)CCC(F)(F)C(F)(F)C(F)(F)C(F)(F)C(F)(F)C(F)(F)C(F)(F)C(F)(F)F)cc2)cc1 [G{1,8}] | − (−: <0.01 g/ml) | − (−: <0.01 g/ml) | − (−: <0.01 g/ml) | – | – | –
